Reference: patent US11655217B2, “Pyrazole MAGL inhibitors” (H. Lundbeck A/S, priority 2017, dated 2023)

Columns and labels:
FAAH = FAAH (Mus musculus (Mouse), UniProt O08914); assay: Mouse brain proteomes from inhibitor treated mice (oral gavage, sacrificed 4 h after administration, ABPP analysis), FAAH; conditions: 5 mg/kg oral gavage
Experimental: (§1) Preparation of Mouse Brain Proteomes from Inhibitor Treated Mice.
(§2) Inhibitors were administered to wild-type C57Bl/6J by oral gavage in a vehicle of polyethylene glycol.

MAGL = MAGL (Mus musculus (Mouse), UniProt O35678); assay: Mouse brain proteomes from inhibitor treated mice (oral gavage, sacrificed 4 h after administration, ABPP analysis); conditions: 5 mg/kg oral gavage
MAGL, sequence (O35678 whole entry): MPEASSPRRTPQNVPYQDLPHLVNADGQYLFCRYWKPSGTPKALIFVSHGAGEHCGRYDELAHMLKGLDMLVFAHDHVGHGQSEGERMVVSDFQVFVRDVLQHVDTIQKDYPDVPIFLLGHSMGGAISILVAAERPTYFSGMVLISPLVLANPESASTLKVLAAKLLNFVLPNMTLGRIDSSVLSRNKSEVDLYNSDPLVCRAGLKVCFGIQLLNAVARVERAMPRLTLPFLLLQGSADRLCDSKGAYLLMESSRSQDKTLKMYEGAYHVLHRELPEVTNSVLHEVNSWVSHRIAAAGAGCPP
Experimental: as §1, §2

FAAH, sequence (O08914 whole entry): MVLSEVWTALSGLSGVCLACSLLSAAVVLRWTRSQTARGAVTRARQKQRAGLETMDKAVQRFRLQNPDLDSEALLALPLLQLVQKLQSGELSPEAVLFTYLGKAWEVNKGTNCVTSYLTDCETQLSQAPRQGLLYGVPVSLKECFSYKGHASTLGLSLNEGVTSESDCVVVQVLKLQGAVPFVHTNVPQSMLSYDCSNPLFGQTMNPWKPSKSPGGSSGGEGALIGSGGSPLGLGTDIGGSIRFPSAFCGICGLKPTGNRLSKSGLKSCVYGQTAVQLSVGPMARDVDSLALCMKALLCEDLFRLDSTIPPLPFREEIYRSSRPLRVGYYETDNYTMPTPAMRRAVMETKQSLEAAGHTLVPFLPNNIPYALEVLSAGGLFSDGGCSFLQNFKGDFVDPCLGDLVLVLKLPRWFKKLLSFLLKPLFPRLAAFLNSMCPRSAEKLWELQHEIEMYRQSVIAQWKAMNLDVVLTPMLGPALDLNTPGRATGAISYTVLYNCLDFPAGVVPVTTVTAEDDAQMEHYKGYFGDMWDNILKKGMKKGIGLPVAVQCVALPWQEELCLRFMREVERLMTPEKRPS

SMILES	FAAH % inh. 5 mg/kg (mouse) (FAAH)	MAGL % inh. 5 mg/kg (mouse) (MAGL)
O=C(O)c1ccn(C(=O)N2CCN(Cc3ccc(C(F)(F)F)cc3N3CCOCC3)CC2)n1 [Example 3, 1-(4-(2-Morpholino-4-(trifluoromethyl)benzyl)piperazine-1-carbonyl)-1H-pyrazole-3-carboxylic Acid]	D (% inhibition is greater than or equal to 0% and less than 25%)	D (% inhibition is greater than or equal to 0% and less than 25%)
CN(Cc1ccc(C(F)(F)F)cc1N1CCOCC1)C1(C)CCN(C(=O)n2ccc(C(=O)O)n2)CC1 [Example 4, 1-(4-Methyl-4-(methyl(2-morpholino-4-(trifluoromethyl)benzyl)amino)piperidine-1-carbonyl)-1H-pyrazole-3-carboxylic Acid]	D (% inhibition is greater than or equal to 0% and less than 25%)	D (% inhibition is greater than or equal to 0% and less than 25%)
O=C(O)c1ccn(C(=O)N2CCN(Cc3ccc(C(F)(F)F)cc3N3CCN(C4CC4)CC3)CC2)n1 [Example 6, 1-(4-(2-(4-Cyclopropylpiperazin-1-yl)-4-(trifluoromethyl)benzyl)piperazine-1-carbonyl)-1H-pyrazole-3-carboxylic Acid]	D (% inhibition is greater than or equal to 0% and less than 25%)	D (% inhibition is greater than or equal to 0% and less than 25%)
O=C(O)c1ccn(C(=O)N2CCN(Cc3ccc(C(F)(F)F)c(N4CCCC4)c3)CC2)n1 [Example 7, 1-(4-(3-(Pyrrolidin-1-yl)-4-(trifluoromethyl)benzyl)piperazine-1-carbonyl)-1H-pyrazole-3-carboxylic Acid]	D (% inhibition is greater than or equal to 0% and less than 25%)	D (% inhibition is greater than or equal to 0% and less than 25%)
O=C(O)c1ccn(C(=O)N2CCN(Cc3ccc(C(F)(F)F)c(-c4nccs4)c3)CC2)n1 [Example 8, 1-(4-(3-(Thiazol-2-yl)-4-(trifluoromethyl)benzyl)piperazine-1-carbonyl)-1H-pyrazole-3-carboxylic Acid]	D (% inhibition is greater than or equal to 0% and less than 25%)	D (% inhibition is greater than or equal to 0% and less than 25%)
CN(Cc1ccc(C(F)(F)F)cc1-c1nccs1)C1(C)CCN(C(=O)n2ccc(C(=O)O)n2)CC1 [Example 10, 1-(4-methyl-4-(methyl(2-(thiazol-2-yl)-4-(trifluoromethyl)benzyl)amino)piperidine-1-carbonyl)-1H-pyrazole-3-carboxylic Acid]	D (% inhibition is greater than or equal to 0% and less than 25%)	D (% inhibition is greater than or equal to 0% and less than 25%)
O=C(O)c1ccn(C(=O)N2CCC(Oc3ccc(Cl)cc3N3CCCC3)CC2)n1 [Example 11, 1-(4-(4-Chloro-2-(pyrrolidin-1-yl)phenoxy)piperidine-1-carbonyl)-1H-pyrazole-3-carboxylic Acid]	D (% inhibition is greater than or equal to 0% and less than 25%)	D (% inhibition is greater than or equal to 0% and less than 25%)
COC1CCN(c2cc(C(F)(F)F)ccc2CN2CCN(C(=O)n3ccc(C(=O)O)n3)CC2)CC1 [Example 12, 1-(4-(2-(4-Methoxypiperidin-1-yl)-4-(trifluoromethyl)benzyl)piperazine-1-carbonyl)-1H-pyrazole-3-carboxylic Acid]	D (% inhibition is greater than or equal to 0% and less than 25%)	D (% inhibition is greater than or equal to 0% and less than 25%)
O=C(O)c1ccn(C(=O)N2CCN(Cc3ccc(C(F)(F)F)c(N4C5CCC4COC5)c3)CC2)n1 [Example 40, 1-(4-(3-(3-oxa-8-azabicyclo[3.2.1]octan-8-yl)-4-(trifluoromethyl)benzyl)piperazine-1-carbonyl)-1H-pyrazole-3-carboxylic acid]	D (% inhibition is greater than or equal to 0% and less than 25%)	D (% inhibition is greater than or equal to 0% and less than 25%)
O=C(O)c1ccn(C(=O)N2CCC3(CCN(Cc4cc(Cl)ccc4C(F)(F)F)C3)CC2)n1 [Example 43, 1-(2-(5-chloro-2-(trifluoromethyl)benzyl)-2,8-diazaspiro[4.5]decane-8-carbonyl)-1H-pyrazole-3-carboxylic acid]	D (% inhibition is greater than or equal to 0% and less than 25%)	D (% inhibition is greater than or equal to 0% and less than 25%)
O=C(O)c1ccn(C(=O)N2CCN(Cc3ccc(C(F)(F)F)cc3N3CCN4CCC[C@@H]4C3)CC2)n1 [Example 48, (R)-1-(4-(2-(hexahydropyrrolo-[1,2-a]pyrazin-2(1H)-yl)-4-(trifluoromethyl)benzyl)piperazine-1-carbonyl)-1H-pyrazole-3-carboxylic acid]	D (% inhibition is greater than or equal to 0% and less than 25%)	D (% inhibition is greater than or equal to 0% and less than 25%)
O=C(O)c1ccn(C(=O)N2CCN(Cc3cccc(Oc4ccc(F)cc4)c3)CC2)n1 [Example 51, 1-(4-(3-(4-fluorophenoxy)benzyl)piperazine-1-carbonyl)-1H-pyrazole-3-carboxylic acid]	D (% inhibition is greater than or equal to 0% and less than 25%)	D (% inhibition is greater than or equal to 0% and less than 25%)
O=C(O)c1ccn(C(=O)N2C[C@H]3C[C@H](OCc4ccc(Oc5ccc(Cl)cc5)cc4)C[C@H]3C2)n1 [Example 55, 1-(trans-5-((4-(4-chlorophenoxy)benzyl)-oxy)octahydrocyclo-penta-[c]pyrrole-2-carbonyl)-1H-pyrazole-3-carboxylic acid]	D (% inhibition is greater than or equal to 0% and less than 25%)	D (% inhibition is greater than or equal to 0% and less than 25%)
O=C(O)c1ccn(C(=O)N2CCN(Cc3cccc(Oc4cc(C(F)(F)F)ccn4)c3)CC2)n1 [Example 57, 1-(4-(3-((4-(trifluoromethyl)pyridin-2-yl)oxy)benzyl)piperazine-1-carbonyl)-1H-pyrazole-3-carboxylic acid]	D (% inhibition is greater than or equal to 0% and less than 25%)	D (% inhibition is greater than or equal to 0% and less than 25%)
O=C(O)c1ccn(C(=O)N2CCN(Cc3ccc(C(F)(F)F)cc3N3CCCC3)CC2)n1 [Example 83, 1-(4-(2-(pyrrolidin-1-yl)-4-(trifluoromethyl)benzyl)piperazine-1-carbonyl)-1H-pyrazole-3-carboxylic acid]	D (% inhibition is greater than or equal to 0% and less than 25%)	D (% inhibition is greater than or equal to 0% and less than 25%)
O=C(O)c1ccn(C(=O)N2CCC3(CCCN3Cc3cc(Cl)cc(C(F)(F)F)c3)CC2)n1 [Example 86, 1-(1-(3-chloro-5-(trifluoromethyl)benzyl)-1,8-diazaspiro[4.5]decane-8-carbonyl)-1H-pyrazole-3-carboxylic acid]	D (% inhibition is greater than or equal to 0% and less than 25%)	D (% inhibition is greater than or equal to 0% and less than 25%)
C[C@H]1CC[C@H](C)N1c1cc(C(F)(F)F)ccc1CN1CCN(C(=O)n2ccc(C(=O)O)n2)CC1 [Example 360, 1-(4-(2-((2S,5S)-2,5-dimethylpyrrolidin-1-yl)-4-(trifluoromethyl)benzyl)piperazine-1-carbonyl)-1H-pyrazole-3-carboxylic acid]	–	D (% inhibition is greater than or equal to 0% and less than 25%)
CN(Cc1cc(N2CCCC2)cc(C(F)(F)F)c1)C1(C)CCN(C(=O)n2ccc(C(=O)O)n2)CC1 [Example 381, 1-(4-methyl-4-(methyl(3-(pyrrolidin-1-yl)-5-(trifluoromethyl)benzyl)amino)piper-idine-1-carbonyl)-1H-pyrazole-3-carboxylic acid]	–	D (% inhibition is greater than or equal to 0% and less than 25%)
CN(Cc1cccc(C(F)(F)F)c1N1CCCC1)C1(C)CCN(C(=O)n2ccc(C(=O)O)n2)CC1 [Example 382, 1-(4-methyl-4-(methyl(2-(pyrrolidin-1-yl)-3-(trifluoromethyl)benzyl)amino)piper-idine-1-carbonyl)-1H-pyrazole-3-carboxylic acid]	–	D (% inhibition is greater than or equal to 0% and less than 25%)
CN(Cc1cc(C(F)(F)F)ccc1N1CCCC1)C1(C)CCN(C(=O)n2ccc(C(=O)O)n2)CC1 [Example 384, 1-(4-methyl-4-(methyl(2-(pyrrolidin-1-yl)-5-(trifluoromethyl)benzyl)amino)piper-idine-1-carbonyl)-1H-pyrazole-3-carboxylic acid]	–	D (% inhibition is greater than or equal to 0% and less than 25%)
CN(Cc1ccc(C(F)(F)F)c(N2CCCC2)c1)C1(C)CCN(C(=O)n2ccc(C(=O)O)n2)CC1 [Example 385, 1-(4-methyl-4-(methyl(3-(pyrrolidin-1-yl)-4-(trifluoromethyl)benzyl)amino)piper-idine-1-carbonyl)-1H-pyrazole-3-carboxylic acid]	–	D (% inhibition is greater than or equal to 0% and less than 25%)
O=C(O)c1nn(C(=O)N2CCC3(CCN(Cc4cc(Cl)cc(C(F)(F)F)c4)C3)CC2)cc1Cl [Example 388, 4-chloro-1-(2-(3-chloro-5-(trifluoromethyl)benzyl)-2,8-diazaspiro[4.5]decane-8-carbonyl)-1H-pyrazole-3-carboxylic acid]	–	D (% inhibition is greater than or equal to 0% and less than 25%)
C[C@@H]1CN(Cc2ccc(C(F)(F)F)cc2N2C3CCC2COC3)CCN1C(=O)n1ccc(C(=O)O)n1 [Example 393, 1-((2R)-4-(2-(3-oxa-8-azabicyclo[3.2.1]octan-8-yl)-4-(trifluoromethyl)benzyl)-2-methylpiperazine-1-carbonyl)-1H-pyrazole-3-carboxylic acid]	–	D (% inhibition is greater than or equal to 0% and less than 25%)
